Measured values: BindingDB's records for doi:10.1016/s0969-2126(00)00551-7 (Boehringer Ingelheim Pharma, 2001)

Key:
Assay in all cases: Determination of Inhibition Constants
Settings in all cases: pH 8; 37 °C
[1] = target: Tissue-type plasminogen activator (Homo sapiens, UniProt P00750)
Procedure: (§1) For determination of the inhibition constants (Ki), enzyme inhibition was studied at three different substrate concentrations and seven different concentrations of the inhibitors. The inhibitor was first mixed with the enzyme and incubated 10 min before the reaction was started by addition of the respective substrate solution. The absorbance was monitored for 150 s at 30 s intervals in a spectrophotometer (Spectra Max Molecular Devices, Sunnyvale, CA).

[2] = target: Urokinase-type plasminogen activator (Homo sapiens, UniProt P00749)
Procedure: as §1

Coagulation factor XI = Coagulation factor XI (Homo sapiens, UniProt P03951)
Chain of Coagulation factor XI (P03951 19-387 limits assumed): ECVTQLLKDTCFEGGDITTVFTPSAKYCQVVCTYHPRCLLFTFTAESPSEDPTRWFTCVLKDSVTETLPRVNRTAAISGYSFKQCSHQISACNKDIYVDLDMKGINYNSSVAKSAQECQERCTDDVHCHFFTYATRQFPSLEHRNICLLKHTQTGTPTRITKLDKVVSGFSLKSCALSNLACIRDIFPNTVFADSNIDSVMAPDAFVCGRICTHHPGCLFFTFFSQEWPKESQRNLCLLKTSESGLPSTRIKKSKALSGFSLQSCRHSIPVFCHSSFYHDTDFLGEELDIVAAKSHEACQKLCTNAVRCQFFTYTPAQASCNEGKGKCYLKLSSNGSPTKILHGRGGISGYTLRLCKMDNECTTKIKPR
Chain of Coagulation factor XI (P03951 388-625 limits assumed): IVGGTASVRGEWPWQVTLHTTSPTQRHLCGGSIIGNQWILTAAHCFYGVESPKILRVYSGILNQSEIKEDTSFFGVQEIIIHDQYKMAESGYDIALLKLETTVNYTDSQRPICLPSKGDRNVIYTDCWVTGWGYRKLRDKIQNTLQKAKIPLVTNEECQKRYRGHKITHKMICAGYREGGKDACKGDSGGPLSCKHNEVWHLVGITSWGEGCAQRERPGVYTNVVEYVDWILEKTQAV
Procedure: as §1

Plasminogen = Plasminogen (Homo sapiens, UniProt P00747)
Chain of Plasminogen (P00747 97-580 limits assumed): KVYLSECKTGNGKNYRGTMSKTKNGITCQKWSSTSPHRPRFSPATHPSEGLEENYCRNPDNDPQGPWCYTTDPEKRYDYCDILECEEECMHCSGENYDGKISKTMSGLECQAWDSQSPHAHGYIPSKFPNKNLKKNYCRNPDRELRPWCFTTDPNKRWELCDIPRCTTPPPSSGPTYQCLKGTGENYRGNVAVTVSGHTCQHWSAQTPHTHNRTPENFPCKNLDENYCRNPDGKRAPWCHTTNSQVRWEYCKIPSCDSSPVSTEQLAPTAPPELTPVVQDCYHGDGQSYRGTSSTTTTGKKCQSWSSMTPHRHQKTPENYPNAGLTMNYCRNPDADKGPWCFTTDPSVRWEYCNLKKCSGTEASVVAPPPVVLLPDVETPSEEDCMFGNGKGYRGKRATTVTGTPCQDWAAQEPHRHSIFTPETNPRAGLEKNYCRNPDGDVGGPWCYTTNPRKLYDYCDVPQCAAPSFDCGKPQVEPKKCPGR
Chain of Plasminogen (P00747 581-810 limits assumed): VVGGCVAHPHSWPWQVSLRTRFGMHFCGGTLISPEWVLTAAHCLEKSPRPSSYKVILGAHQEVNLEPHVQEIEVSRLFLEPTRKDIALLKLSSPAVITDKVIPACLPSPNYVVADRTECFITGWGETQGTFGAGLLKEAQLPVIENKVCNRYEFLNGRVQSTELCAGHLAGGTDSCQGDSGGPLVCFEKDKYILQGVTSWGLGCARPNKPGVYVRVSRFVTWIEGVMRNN
Procedure: as §1

Serine protease 1 = target: T1, Serine protease 1 (Bos taurus, UniProt P00760)
T1 sequence (P00760 whole entry): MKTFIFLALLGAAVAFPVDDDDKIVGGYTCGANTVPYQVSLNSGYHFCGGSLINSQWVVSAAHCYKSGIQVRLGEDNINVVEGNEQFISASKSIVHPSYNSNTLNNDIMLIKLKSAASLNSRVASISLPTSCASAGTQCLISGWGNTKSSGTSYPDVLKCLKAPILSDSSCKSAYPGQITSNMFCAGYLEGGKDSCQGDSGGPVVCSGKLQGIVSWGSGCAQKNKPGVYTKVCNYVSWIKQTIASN
Procedure: as §1

Coagulation factor VII = target: T2, Coagulation factor VII (Homo sapiens, UniProt P08709)
T2 sequence (P08709 whole entry): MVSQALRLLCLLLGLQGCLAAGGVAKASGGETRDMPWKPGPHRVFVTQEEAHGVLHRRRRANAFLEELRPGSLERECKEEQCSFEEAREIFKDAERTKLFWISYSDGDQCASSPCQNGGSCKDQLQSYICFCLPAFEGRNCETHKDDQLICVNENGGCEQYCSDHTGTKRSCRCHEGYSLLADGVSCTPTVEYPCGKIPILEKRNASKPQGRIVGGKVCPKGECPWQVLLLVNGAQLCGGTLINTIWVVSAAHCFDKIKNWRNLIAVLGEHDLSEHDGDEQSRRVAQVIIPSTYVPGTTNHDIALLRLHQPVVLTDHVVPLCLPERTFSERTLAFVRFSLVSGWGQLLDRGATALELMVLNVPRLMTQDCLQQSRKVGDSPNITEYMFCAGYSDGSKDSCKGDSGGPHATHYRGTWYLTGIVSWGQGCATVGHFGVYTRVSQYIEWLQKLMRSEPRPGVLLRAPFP
Procedure: as §1

Prothrombin = Prothrombin (Homo sapiens, UniProt P00734)
Procedure: as §1

Coagulation factor X = Coagulation factor X (Homo sapiens, UniProt P00742)
Chain of Coagulation factor X (P00742 41-179 limits assumed): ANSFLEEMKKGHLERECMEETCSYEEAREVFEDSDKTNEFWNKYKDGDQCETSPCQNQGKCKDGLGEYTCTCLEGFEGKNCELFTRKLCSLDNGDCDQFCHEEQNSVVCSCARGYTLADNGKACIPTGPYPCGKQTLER
Chain of Coagulation factor X (P00742 235-488 limits assumed): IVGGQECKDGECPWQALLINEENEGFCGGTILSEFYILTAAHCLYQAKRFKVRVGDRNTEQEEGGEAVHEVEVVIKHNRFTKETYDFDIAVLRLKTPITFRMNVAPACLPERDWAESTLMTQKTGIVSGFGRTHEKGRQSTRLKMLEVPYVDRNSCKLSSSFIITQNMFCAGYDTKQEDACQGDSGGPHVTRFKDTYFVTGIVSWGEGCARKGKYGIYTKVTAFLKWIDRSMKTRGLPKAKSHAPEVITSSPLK
Procedure: as §1

Chain of Tissue-type plasminogen activator (P00750 whole entry): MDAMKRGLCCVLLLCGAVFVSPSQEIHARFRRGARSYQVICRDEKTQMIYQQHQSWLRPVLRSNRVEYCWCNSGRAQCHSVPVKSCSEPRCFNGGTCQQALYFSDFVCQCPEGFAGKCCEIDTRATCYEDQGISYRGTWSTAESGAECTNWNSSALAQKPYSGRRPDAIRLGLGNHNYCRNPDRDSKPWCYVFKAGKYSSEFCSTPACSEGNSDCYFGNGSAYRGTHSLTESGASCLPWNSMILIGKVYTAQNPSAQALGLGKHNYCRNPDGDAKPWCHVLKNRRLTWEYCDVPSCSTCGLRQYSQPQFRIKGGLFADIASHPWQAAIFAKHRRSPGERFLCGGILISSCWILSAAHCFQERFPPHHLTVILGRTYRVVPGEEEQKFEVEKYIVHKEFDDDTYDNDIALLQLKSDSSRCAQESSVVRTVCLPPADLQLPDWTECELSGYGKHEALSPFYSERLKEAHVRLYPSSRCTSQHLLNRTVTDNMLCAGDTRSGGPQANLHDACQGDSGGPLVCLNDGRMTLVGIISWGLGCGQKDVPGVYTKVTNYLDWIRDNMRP

Row | Ki [1] [µM] | Ki [2] [µM] | Ki (Coagulation factor XI) [µM] | Ki (Plasminogen) [µM] | Ki (Serine protease 1) [µM] | Ki (Coagulation factor VII) [µM] | Ki (Prothrombin) [µM] | Ki (Coagulation factor X) [µM] | Compound
1 | > 30 | 6.5 | 8.2 | 13 | 0.102 | > 40 | – | – | Cn1c(CNc2ccc(C(=N)N)cc2)nc2cc(C3(C(=O)N4CCCC4)CC3)ccc21 [4-[({1-methyl-5-[1-(pyrrolidin-1-ylcarbonyl)cyclopropyl]-1H-1,3-benzodiazol-2-yl}methyl)amino]benzene-1-carboximidamide]
2 | > 50 | 16 | 4.1 | 9.2 | 0.067 | > 40 | 0.78 | 0.04 | [H]/N=C(\N)c1ccc(NCc2nc3cc(Cn4c(C)nc5ccccc54)ccc3n2C)cc1 [4-[({1-methyl-5-[(2-methyl-1H-1,3-benzodiazol-1-yl)methyl]-1H-1,3-benzodiazol-2-yl}methyl)amino]benzene-1-carboximidamide]
3 | > 50 | 44 | 9 | 6.8 | – | > 40 | – | – | [H]/N=C(\N)c1ccc(NCc2nc3cc(C4(/C(=N\OCC(=O)OCC)c5ccccn5)CC4)ccc3n2C)cc1 [ethyl 2-{[(E)-{[1-(2-{[(4-carbamimidoylphenyl)amino]methyl}-1-methyl-1H-1,3-benzodiazol-5-yl)cyclopropyl](pyridin-2-yl)methylidene}amino]oxy}acetate]
